Reference: PubChem BioAssay (NCI)
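Results reflect a 48-hour exposure of cells in 96-well plates to compound at five concentrations. The concentration for 50% growth inhibition is given as GI50. TGI denotes the concentration required for complete inhibition of growth.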

What was measured:
Assay in all cases: growth of human tumour cells (NCI), 48 h
[1] = system: 786-0 renal
[2] = system: A498 renal
[3] = system: A549 NSCLC
[4] = system: ACHN renal
[5] = system: BT-549 breast
[6] = system: CAKI-1 renal
[7] = system: CCRF-CEM leukemia
[8] = system: COLO 205 colon
[9] = system: DU-145 prostate
[10] = system: EKVX NSCLC
[11] = system: HCC-2998 colon
[12] = system: HCT-116 colon
[13] = system: HCT-15 colon
[14] = system: HL-60(TB) leukemia
[15] = system: HOP-62 NSCLC
[16] = system: HOP-92 NSCLC
[17] = system: HS 578T breast
[18] = system: HT29 colon
[19] = system: IGROV1 ovarian
[20] = system: K-562 leukemia
[21] = system: KM12 colon
[22] = system: LOX IMVI melanoma
[23] = system: M14 melanoma
[24] = system: MALME-3M melanoma
[25] = system: MCF7 breast
[26] = system: MDA-MB-231 breast
[27] = system: MDA-MB-435
[28] = system: MDA-MB-468 breast
[29] = system: MOLT-4 leukemia
[30] = system: NCI-H226 lung
[31] = system: NCI-H23 lung
[32] = system: NCI-H460 lung
[33] = system: NCI-H522 lung
[34] = system: NCI/ADR-RES ovarian
[35] = system: OVCAR-3 ovarian
[36] = system: OVCAR-4 ovarian
[37] = system: OVCAR-5 ovarian
[38] = system: OVCAR-8 ovarian
[39] = system: PC-3 prostate
[40] = system: RPMI-8226 leukemia
[41] = system: RXF 393 renal
[42] = system: SF-268 CNS
[43] = system: SF-295 CNS
[44] = system: SF-539 CNS
[45] = system: SK-MEL-2 melanoma
[46] = system: SK-MEL-28 melanoma
[47] = system: SK-MEL-5 melanoma
[48] = system: SK-OV-3 ovarian
[49] = system: SN12C renal
[50] = system: SNB-19 CNS
[51] = system: SR leukemia
[52] = system: SW-620 colon
[53] = system: T-47D breast
[54] = system: TK-10 renal
[55] = system: U251 CNS
[56] = system: UACC-257 melanoma
[57] = system: UACC-62 melanoma
[58] = system: UO-31 renal

SMILES: C[C@H]1CN(C(=O)c2ccc3c(NNC(=O)c4ccncn4)nc4cc(F)c(F)cc4n23)CCN1
- GI50 [1]: 0.879 µM
- TGI [1]: 11.4 µM
- GI50 [2]: 19.1 µM
- TGI [2]: 34.3 µM
- GI50 [3]: 0.773 µM
- TGI [3]: 15.6 µM
- GI50 [4]: 0.452 µM
- TGI [4]: 12.2 µM
- GI50 [5]: 4.06 µM
- TGI [5]: 85.8 µM
- GI50 [6]: 0.566 µM
- TGI [6]: 27.2 µM
- GI50 [7]: 1.25 µM
- TGI [7]: 8.74 µM
- GI50 [8]: 2.32 µM
- TGI [8]: 15 µM
- GI50 [9]: 1.99 µM
- TGI [9]: > 100 µM
- GI50 [10]: 0.871 µM
- TGI [10]: 9.24 µM
- GI50 [11]: 2.14 µM
- TGI [11]: 62.5 µM
- GI50 [12]: 0.568 µM
- TGI [12]: 22.2 µM
- GI50 [13]: 0.18 µM
- TGI [13]: 20.1 µM
- GI50 [14]: 1.3 µM
- TGI [14]: 6.27 µM
- GI50 [15]: 0.938 µM
- TGI [15]: > 100 µM
- GI50 [16]: 0.246 µM
- TGI [16]: 5.56 µM
- GI50 [17]: 7.64 µM
- TGI [17]: > 100 µM
- GI50 [18]: 0.495 µM
- TGI [18]: 16 µM
- GI50 [19]: 3.29 µM
- TGI [19]: > 100 µM
- GI50 [20]: 1.97 µM
- TGI [20]: 32.6 µM
- GI50 [21]: 2.29 µM
- TGI [21]: 54 µM
- GI50 [22]: 0.88 µM
- TGI [22]: 4.44 µM
- GI50 [23]: 0.711 µM
- TGI [23]: 4.5 µM
- GI50 [24]: 2.57 µM
- TGI [24]: 9.98 µM
- GI50 [25]: 2.75 µM
- TGI [25]: 55.8 µM
- GI50 [26]: 3.42 µM
- TGI [26]: 49.9 µM
- GI50 [27]: 4.83 µM
- TGI [27]: > 100 µM
- GI50 [28]: 1.51 µM
- TGI [28]: 4.54 µM
- GI50 [29]: 1.98 µM
- TGI [29]: 17.2 µM
- GI50 [30]: 1.49 µM
- TGI [30]: 13 µM
- GI50 [31]: 2 µM
- TGI [31]: > 100 µM
- GI50 [32]: 0.492 µM
- TGI [32]: 12.7 µM
- GI50 [33]: 2.18 µM
- TGI [33]: 20.3 µM
- GI50 [34]: 1.24 µM
- TGI [34]: 6.73 µM
- GI50 [35]: 3.32 µM
- TGI [35]: 81.1 µM
- GI50 [36]: 2.12 µM
- TGI [36]: 40.1 µM
- GI50 [37]: 2.58 µM
- TGI [37]: 44.4 µM
- GI50 [38]: 1.05 µM
- TGI [38]: 14 µM
- GI50 [39]: 1.6 µM
- TGI [39]: 30.6 µM
- GI50 [40]: 2.71 µM
- TGI [40]: > 100 µM
- GI50 [41]: 2.12 µM
- TGI [41]: 12.2 µM
- GI50 [42]: 2.17 µM
- TGI [42]: > 100 µM
- GI50 [43]: 0.418 µM
- TGI [43]: 19.1 µM
- GI50 [44]: 2.61 µM
- TGI [44]: 14.5 µM
- GI50 [45]: 2.73 µM
- TGI [45]: 20.1 µM
- GI50 [46]: 2.92 µM
- TGI [46]: > 100 µM
- GI50 [47]: 1.55 µM
- TGI [47]: 11.1 µM
- GI50 [48]: 1.2 µM
- TGI [48]: 17.2 µM
- GI50 [49]: 2.87 µM
- TGI [49]: > 100 µM
- GI50 [50]: 3.4 µM
- TGI [50]: > 100 µM
- GI50 [51]: 0.444 µM
- TGI [51]: 11.3 µM
- GI50 [52]: 1.98 µM
- TGI [52]: > 100 µM
- GI50 [53]: 3.43 µM
- TGI [53]: > 100 µM
- GI50 [54]: 0.373 µM
- TGI [54]: 16.8 µM
- GI50 [55]: 0.892 µM
- TGI [55]: > 100 µM
- GI50 [56]: 3.34 µM
- TGI [56]: 20.3 µM
- GI50 [57]: 1.53 µM
- TGI [57]: 4.56 µM
- GI50 [58]: 0.284 µM
- TGI [58]: 5.08 µM
